# Reference: patent US11123434B2, “Drug delivery device and its method of manufacture” (City University of Hong Kong, priority 2017, dated 2021)
# Assay: Drug release from loaded sponges at 37° C. in deionized water
# Type: physicochemical
# Details: comparison among model drugs MB, ORO, TH
# Description: To maintain constant therapeutic levels for prolonged periods and to reduce the total dose of administration, the ability of a carrier to prolong drug release is required.
compound,measurement,value
CN(C)[C@@H]1C(=O)C(C(N)=O)=C(O)[C@@]2(O)C(=O)C3=C(O)c4c(O)cccc4[C@@](C)(O)[C@H]3C[C@@H]12.Cl [TH],drug release sustainability,more sustainable as compared to that of ORO
